Patent US9340534B2, “Compounds and methods for treating ocular diseases” (Allergan, Inc., priority 2014, dated 2016)
pEC50: −log10 of the molar value.

Assays:
EP2 [1] = target: T1, EP2 (Homo sapiens (Human), UniProt P43116); assay: EP2 radioligand competition binding ([3H]PGE2); settings: HEK-293 cells stably expressing receptor, [3H]PGE2 radioligand
Description: Competition binding experiments were performed in a medium containing Hank's balanced salt solution, Hepes 20 mM, pH 7.3, membranes (˜60 μg protein) or 2×10^5 cells from HEK 293 cells stably expressing human EP2 receptors, [^3H]PGE2 (10 nM) and various concentrations of test compounds in a total volume of 300 μl. Reaction mixtures were incubated at 23° C. for 60 min, and were filtered over Whatman GF/B filters under vacuum. Filters were washed three times with 5 ml ice-cold buffer containing 50 mM Tris/HCl (pH 7.3). Non-specific binding was estimated in the presence of excess unlabeled PGE2 (10 μM). Binding data fitted to the binding model for a single class of binding sites, using nonlinear regression analysis. IC50 values thus obtained were converted to Ki using the equation of Ki=(IC50/(1+[L]/KD) where [L] represents PGE2 concentration (10 nM) and KD the dissociation constant for [^3H]PGE2 at human EP2 receptors (40 nM). […]
The cell homogenate was centrifuged at 19000 r.p.m. for 20 min at 4° C. using a Beckman Ti-60 rotor. The resultant pellet was resuspended in TME buffer to give a final 1 mg/ml protein concentration, as determined by Biorad assay. […]
[^3H—] […] 17-phenyl PGF2a and non-specific binding determined with 10^−5M of unlabeled PGE2, or 17-phenyl PGF2a, according to receptor subtype studied.

EP4 [2] = target: T2, EP4 (Homo sapiens (Human), UniProt P35408); assay: EP4 cAMP functional assay; format: cell-based
T2 sequence (P35408 whole entry): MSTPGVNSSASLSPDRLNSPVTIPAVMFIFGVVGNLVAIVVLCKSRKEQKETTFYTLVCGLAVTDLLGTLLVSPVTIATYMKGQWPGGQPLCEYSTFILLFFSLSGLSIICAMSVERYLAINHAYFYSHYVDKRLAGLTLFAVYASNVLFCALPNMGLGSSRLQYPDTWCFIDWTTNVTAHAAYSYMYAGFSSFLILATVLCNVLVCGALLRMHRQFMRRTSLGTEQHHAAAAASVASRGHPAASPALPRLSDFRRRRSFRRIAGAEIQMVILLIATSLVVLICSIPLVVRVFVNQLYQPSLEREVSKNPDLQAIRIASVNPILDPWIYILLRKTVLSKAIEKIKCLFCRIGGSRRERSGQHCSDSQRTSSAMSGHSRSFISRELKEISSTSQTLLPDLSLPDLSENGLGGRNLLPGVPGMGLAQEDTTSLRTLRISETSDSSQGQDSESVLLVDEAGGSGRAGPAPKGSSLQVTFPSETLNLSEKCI

EP2 [3] = target: T1, EP2; assay: EP2 cAMP functional assay; format: cell-based
EP4 [4] = target: T2, EP4; assay: EP4 radioligand competition binding ([3H]PGE2); settings: HEK-293 cells stably expressing receptor, [3H]PGE2 radioligand
Description: HEK-293 cells stably expressing the human or feline FP receptor, or EP1, EP2, or EP4 receptors were washed with TME buffer, scraped from the bottom of the flasks, and homogenized for 30 sec using a Brinkman PT 10/35 polytron. TME buffer was added to achieve a final 40 ml volume in the centrifuge tubes (the composition of TME is 100 mM TRIS base, 20 mM MgCl2, […]; 10N HCl is added to achieve a pH of 7.4).
The cell homogenate was centrifuged at 19000 r.p.m. for 20 min at 4° C. using a Beckman Ti-60 rotor. The resultant pellet was resuspended in TME buffer to give a final 1 mg/ml protein concentration, as determined by Biorad assay. Radioligand binding competition assays vs. [^3H-]17-phenyl PGF2a (5 nM) were performed in a 100 μl volume for 60 min. Binding reactions were started by adding plasma membrane fraction. The reaction was terminated by the addition of 4 ml ice-cold TRIS-HCl buffer and rapid filtration through glass fiber GF/B filters using a Brandel cell harvester. The filters were washed 3 times with ice-cold buffer and oven dried for one hour.
[^3H—] PGE2 (specific activity 180 Ci mmol) was used as the radioligand for EP receptors. [^3H] 17-phenyl PGF2a was employed for FP receptor binding studies. […] 17-phenyl PGF2a and non-specific binding determined with 10^−5M of unlabeled PGE2, or 17-phenyl PGF2a, according to receptor subtype studied.

T1 sequence (P43116 whole entry): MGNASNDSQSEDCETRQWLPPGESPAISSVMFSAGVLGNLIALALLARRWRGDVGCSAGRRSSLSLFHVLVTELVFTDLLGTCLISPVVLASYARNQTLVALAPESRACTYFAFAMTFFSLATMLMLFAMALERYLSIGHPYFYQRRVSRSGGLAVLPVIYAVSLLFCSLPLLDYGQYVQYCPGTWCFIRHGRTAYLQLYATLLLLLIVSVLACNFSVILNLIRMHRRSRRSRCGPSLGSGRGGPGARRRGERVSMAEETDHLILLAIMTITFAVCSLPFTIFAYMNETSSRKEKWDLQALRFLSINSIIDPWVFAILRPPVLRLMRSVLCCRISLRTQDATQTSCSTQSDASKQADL

- pEC50 (EP2 [1]): 7.02
- pEC50 (EP4 [2]): 9.00
- pEC50 (EP2 [3]): 7.42
- pEC50 (EP4 [4]): 7.28
Structure (SMILES): O=C(O)c1ccc(CCCN2[C@@H](/C=C/C(O)Cc3cccc(C(F)(F)F)c3)CCS2(=O)=O)s1 (stereo partly drawn) [Compound 14, 5-(3-((3R)-3-((E)-3-Hydroxy-4-(3-(trifluoromethyl)phenyl)but-1-en-1-yl)-1,1-dioxidoisothiazolidin-2-yl)propyl)thiophene-2-carboxylic acid]
